This is an account of results in PubChem BioAssay (NCI).

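These data come from cells grown in 96-well plates and exposed to compound for 48 hours at five concentrations. TGI is the concentration that stops growth completely.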 Some results are limits rather than exact numbers.

Experiment in all cases: NCI anticancer screen, dose series, 48 h
Test [1] has as its system KM12 colon.
Test [2] relates to MCF7 breast.
In test [3] the test system is NCI-H460 lung.
For test [4], the system named is RPMI-8226 leukemia.
The subject of test [5] is SF-295 CNS.
For test [6], the system named is SN12C renal.
The test system of test [7] is SNB-19 CNS.
The test system of test [8] is T-47D breast.
Test [9] has as its system UACC-257 melanoma.
Test [10] relates to UACC-62 melanoma.

As to `OCC1OC(n2cnc3c(Cl)nc(Nc4ccc(Cl)c(Cl)c4)nc32)CC1O` (stereo not given), the TGI in [1] was determined as 17.7 µM; in test [2], 27.5 µM; in test [3], 16.8 µM; in test [4], 29.4 µM; in [5], 19.3 µM; in test [6] it was 23.4 µM. Also, the TGI in [7] was greater than 50 µM; in test [8] it was greater than 50 µM; in [9], 20 µM; in [10], 17.2 µM.
As for `CCOC(=O)CC1Nc2ccccc2C12CCc1c([nH]c3ccccc13)C2C(=O)OCC` (stereo not given), the TGI in test [1] is greater than 100 µM; in test [2], greater than 100 µM; in test [3] it was greater than 100 µM; in test [4], 11.1 µM; in test [5], 22.5 µM; in test [6], greater than 100 µM. Moreover, the TGI in [7], in test [8], in test [9] and in [10] was greater than 100 µM in each case.
With `CN1CCc2c(sc3ncn(Nc4ccc(F)cc4)c(=N)c23)C1`, the TGI in test [1], in test [2], in [3], in [4], in test [5] and in test [6] was greater than 100 µM each time. Further, the TGI in [7], in test [8], in test [9] and in test [10] was greater than 100 µM in each case.
In the case of `COc1cc(C(c2ccc3c(c2)OCO3)C2SCCCS2)cc(OC)c1OC` (stereo not given), the TGI in test [1] is 26 µM; in test [2], 10.1 µM; in [3], 2.92 µM; in [4], 7.77 µM; in test [5], 4.66 µM; in test [6], 8.99 µM. In addition, the TGI in test [7] is 5.41 µM; in test [8], greater than 100 µM; in test [9], greater than 100 µM; in test [10], 28.2 µM.
As to `CC(C)C(=O)/C=C/c1c(Cl)cccc1Cl`, the TGI was 11.9 µM in test [1]; 15.8 µM in test [2]; 5.68 µM in [3]; greater than 100 µM in [4]; 24.3 µM in test [5]; 13.6 µM in test [6]. Besides, the TGI in test [7] is 22.6 µM; in test [8], 9.31 µM; in [9], 20.5 µM; in test [10], 19.1 µM.
`COc1ccc(CNc2nc3cc(C(F)(F)F)ccc3nc2C(=O)O)cc1`: the TGI in test [1] is 63.6 µM; in test [2] it was 64.9 µM; in test [3] it was greater than 100 µM; in [4] it was greater than 100 µM; in test [5] it was greater than 100 µM; in test [6] it was 62.6 µM. Besides, the TGI in test [7] is greater than 100 µM; in test [8], greater than 100 µM; in test [9], greater than 100 µM; in [10], 49.8 µM.
Regarding `COC(=O)C1Cc2cc3c(cc2C1)CCC3`, the TGI in [1], in [2], in test [3], in test [4], in test [5] and in test [6] was greater than 100 µM throughout. Also, the TGI in [7], in test [8], in test [9] and in test [10] was greater than 100 µM each time.
As for `COc1cc(OC)c(/C=N\Nc2nc3ccccc3c(=O)n2-c2ccccc2)c(OC)c1`, the TGI in [1] was greater than 31.6 µM; in [2] it was greater than 73.8 µM; in test [3], greater than 77.8 µM; in [4] it was greater than 100 µM; in test [5], 65.1 µM; in test [6] it was 98.8 µM. The TGI in test [7] is 78.6 µM; in [8], 64.5 µM; in [9] it was greater than 76.5 µM; in test [10], 55 µM.
Consider `CC1(C)[C@H]2Cc3cc4nc5ccccn5c4cc3[C@@H]1C2`, for which the TGI came to 36.7 µM in test [1]; 17.8 µM in test [2]; 38.8 µM in test [3]; 69.3 µM in test [4]; 30.8 µM in test [5]; 35.8 µM in [6]. Further, the TGI was found to be 31.8 µM in test [7], 53.7 µM in test [8], 34.2 µM in [9] and 29.9 µM in [10].
Take `C[C@@H]1CC[C@@]2(C)[C@H](C)/C(=C\COC(=O)/C=C/c3ccc(O)c(O)c3)CC[C@@]12C`: the TGI in [1] amounted to 15.9 µM; in test [2] it was 15.2 µM; in test [3] it was 13.5 µM; in test [4] it was 10.2 µM; in test [5] it was 23.2 µM; in test [6], 17.1 µM. Moreover, the TGI in test [7] was determined as 27.8 µM; in test [8], 34.7 µM; in test [9], 24.1 µM; in test [10], 22.1 µM.
Regarding `NC1NCCC(=O)N1CCc1c[nH]c2ccccc12` (stereo not given), the TGI in test [1] was 29.8 µM; in test [2], 29.2 µM; in test [3] it was 31.2 µM; in test [4] it was 60.3 µM; in [5], 64.6 µM; in test [6], 67.6 µM. The TGI in [7] is greater than 100 µM; in test [8], greater than 100 µM; in test [9], 32.1 µM; in test [10] it was 37.6 µM.
For `Cc1c(C#N)c2nc3ccccc3n2c(=O)/c1=C/Nc1ccc(Cl)cc1`, the TGI in test [1] is greater than 100 µM; in test [2] it was greater than 100 µM; in test [3] it was greater than 100 µM; in [4] it was greater than 100 µM; in [5] it was 61.5 µM; in test [6], greater than 100 µM. Besides, the TGI in test [7] was 27.9 µM; in test [8], greater than 100 µM; in test [9], greater than 100 µM; in [10], 47.4 µM.
